Test [1] deals with c-Raf (Homo sapiens, UniProt P04049). As to the kind of experiment: Luciferase-coupled chemiluminescence kinase assay (ATP consumption), c-Raf. The class given is biochemical. Particulars: read-out: cRaf-1 IC50. Summed up: (§1)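 Compound is first mixed with […] Raf enzyme in 20 mM Tris pH 7.5 containing 10 mM MgCl2, 0.03% TX-100 and 1 mM DTT (30 min, room temperature). ATP then starts a 3 h reaction, and unconsumed ATP is detected by chemiluminescence.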

The target of test [2] is B-Raf (Homo sapiens, UniProt P15056). The test can be described thus: Luciferase-coupled chemiluminescence kinase assay (ATP consumption), B-Raf. In kind it is biochemical. The following applies: read-out: bRaf IC50. Put shortly: as §1
B-Raf, sequence (P15056 whole entry): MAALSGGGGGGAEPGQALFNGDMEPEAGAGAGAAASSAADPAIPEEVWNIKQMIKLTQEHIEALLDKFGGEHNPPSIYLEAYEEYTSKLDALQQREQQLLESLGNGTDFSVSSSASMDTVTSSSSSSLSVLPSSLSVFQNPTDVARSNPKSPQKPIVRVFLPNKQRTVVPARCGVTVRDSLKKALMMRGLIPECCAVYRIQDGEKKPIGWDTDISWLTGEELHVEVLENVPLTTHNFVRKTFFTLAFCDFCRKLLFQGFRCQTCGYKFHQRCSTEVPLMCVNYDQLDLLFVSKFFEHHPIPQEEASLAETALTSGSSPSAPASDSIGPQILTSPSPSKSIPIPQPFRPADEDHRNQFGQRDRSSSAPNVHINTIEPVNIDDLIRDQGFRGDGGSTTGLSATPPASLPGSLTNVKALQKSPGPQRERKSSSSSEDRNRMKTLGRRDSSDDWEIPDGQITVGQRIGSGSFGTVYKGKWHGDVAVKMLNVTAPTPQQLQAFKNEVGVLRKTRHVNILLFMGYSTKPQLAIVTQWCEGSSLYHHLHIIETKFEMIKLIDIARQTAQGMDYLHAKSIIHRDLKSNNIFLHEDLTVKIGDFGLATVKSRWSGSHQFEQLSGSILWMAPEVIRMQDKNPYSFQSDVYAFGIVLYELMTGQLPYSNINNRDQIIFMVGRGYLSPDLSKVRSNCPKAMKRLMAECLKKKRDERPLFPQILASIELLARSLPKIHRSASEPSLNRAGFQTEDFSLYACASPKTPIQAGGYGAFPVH

Bounds are passed on as bounds.

c-Raf, sequence (P04049 whole entry): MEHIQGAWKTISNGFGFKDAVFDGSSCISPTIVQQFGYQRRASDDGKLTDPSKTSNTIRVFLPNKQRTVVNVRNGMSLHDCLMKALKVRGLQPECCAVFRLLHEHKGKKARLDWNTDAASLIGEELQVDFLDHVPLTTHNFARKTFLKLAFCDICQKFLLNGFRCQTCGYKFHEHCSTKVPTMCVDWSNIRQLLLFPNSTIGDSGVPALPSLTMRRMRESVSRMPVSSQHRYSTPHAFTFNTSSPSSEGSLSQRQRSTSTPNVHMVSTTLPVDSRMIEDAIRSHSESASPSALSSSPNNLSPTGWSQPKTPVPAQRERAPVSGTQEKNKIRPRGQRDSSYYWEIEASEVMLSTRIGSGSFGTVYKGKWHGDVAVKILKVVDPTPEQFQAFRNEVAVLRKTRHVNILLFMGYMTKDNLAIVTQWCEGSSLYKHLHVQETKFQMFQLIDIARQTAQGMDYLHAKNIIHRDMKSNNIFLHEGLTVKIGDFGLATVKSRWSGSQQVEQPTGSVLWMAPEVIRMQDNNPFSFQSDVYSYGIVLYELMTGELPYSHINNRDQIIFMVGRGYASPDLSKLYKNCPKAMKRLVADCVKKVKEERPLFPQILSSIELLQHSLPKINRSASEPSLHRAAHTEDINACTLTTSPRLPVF

For the molecule `CC(C)(COCc1ccccc1)COC(=O)Nc1nc2cc(C3(O)c4ccccc4C(=O)N3Cc3ccccc3)ccc2[nH]1` (stereo not drawn) [Entry 223, 2,2-dimethyl-3-[(phenylmethyl)oxy]propyl {5-[1-hydroxy-3-oxo-2-(phenylmethyl)-2,3-dihydro-1H-isoindol-1-yl]-1H-benzimidazol-2-yl}carbamate], the values for the half-inhibitory concentration (IC50) in test [1] and in test [2] were below 100 nM and 100 to 1000 nM, respectively.

As for `COC(=O)Nc1nc2cc(C3(O)c4ccccc4C(=O)N3c3cccc(Cl)c3F)ccc2[nH]1` (stereo not drawn) [Entry 224, methyl {5-[2-(3-chloro-2-fluorophenyl)-1-hydroxy-3-oxo-2,3-dihydro-1H-isoindol-1-yl]-1H-benzimidazol-2-yl}carbamate], the 50% inhibitory concentration (IC50) in test [1] and in test [2] was below 100 nM each time.

For the molecule `COC(=O)Nc1nc2cc(C3(O)c4ccccc4C(=O)N3c3cccc(C#N)c3)ccc2[nH]1` (stereo not drawn) [Entry 225, methyl {5-[2-(3-cyanophenyl)-1-hydroxy-3-oxo-2,3-dihydro-1H-isoindol-1-yl]-1H-benzimidazol-2-yl}carbamate], the half-maximal inhibitory concentration (IC50) in test [1] and in test [2] was 100 to 1000 nM throughout.

As for `C#Cc1cc(N2C(=O)c3ccccc3C2(O)c2ccc3[nH]c(NC(=O)OC)nc3c2)ccc1F` (stereo not drawn) [Entry 226, methyl {5-[2-(3-ethynyl-4-fluorophenyl)-1-hydroxy-3-oxo-2,3-dihydro-1H-isoindol-1-yl]-1H-benzimidazol-2-yl}carbamate], the IC50 in test [1] and in test [2] was below 100 nM throughout.

On to `COC(=O)Nc1nc2cc(C3(O)c4ccccc4C(=O)N3c3ccc(F)c(C)c3)ccc2[nH]1` (stereo not drawn) [Entry 227, methyl {5-[2-(4-fluoro-3-methylphenyl)-1-hydroxy-3-oxo-2,3-dihydro-1H-isoindol-1-yl]-1H-benzimidazol-2-yl}carbamate], for which the IC50 in test [1] and in test [2] was below 100 nM each time.

Consider `COC(=O)Nc1nc2ccc(C3(O)c4ccccc4C(=O)N3c3ccc(Cl)c(Cl)c3F)cc2[nH]1` (stereo not drawn) [Entry 228, methyl {6-[2-(3,4-dichloro-2-fluorophenyl)-1-hydroxy-3-oxo-2,3-dihydro-1H-isoindol-1-yl]-1H-benzimidazol-2-yl}carbamate], for which the IC50 in test [1] and in test [2] was below 100 nM in each case.

For `CC1(C)OC[C@@H](COC(=O)Nc2nc3cc(C4(O)c5ccccc5C(=O)N4Cc4ccccc4)ccc3[nH]2)O1` (stereo partly drawn) [Entry 229, [(4S)-2,2-dimethyl-1,3-dioxolan-4-yl]methyl {5-[1-hydroxy-3-oxo-2-(phenylmethyl)-2,3-dihydro-1H-isoindol-1-yl]-1H-benzimidazol-2-yl}carbamate], the half-inhibitory concentration (IC50) in test [1] and in test [2] was below 100 nM each time.

Regarding `COC(=O)Nc1nc2cc(C3(O)c4ccccc4C(=O)N3c3cc(Br)ccc3F)ccc2[nH]1` (stereo not drawn) [Entry 230, methyl {5-[2-(5-bromo-2-fluorophenyl)-1-hydroxy-3-oxo-2,3-dihydro-1H-isoindol-1-yl]-1H-benzimidazol-2-yl}carbamate], the IC50 in test [1] and in test [2] was below 100 nM in each case.

As for `COC(=O)Nc1nc2cc(C3(O)c4ccccc4C(=O)N3c3cccc(NC(C)=O)c3)ccc2[nH]1` (stereo not drawn) [Entry 231, methyl (5-{2-[3-(acetylamino)phenyl]-1-hydroxy-3-oxo-2,3-dihydro-1H-isoindol-1-yl}-1H-benzimidazol-2-yl)carbamate], the half-inhibitory concentration (IC50) in test [1] and in test [2] was below 100 nM each time.

With `COC(=O)Nc1nc2cc(C3(O)c4ccccc4C(=O)N3c3cccc(Cc4ccccc4)c3)ccc2[nH]1` (stereo not drawn) [Entry 232, methyl (5-{1-hydroxy-3-oxo-2-[3-(phenylmethyl)phenyl]-2,3-dihydro-1H-isoindol-1-yl}-1H-benzimidazol-2-yl)carbamate], the half-inhibitory concentration (IC50) in test [1] and in test [2] was below 100 nM each time.

Take `COC(=O)Nc1nc2cc(C3(O)c4ccccc4C(=O)N3C(C)c3cc(Cl)cs3)ccc2[nH]1` (stereo not drawn) [Entry 233, methyl (5-{2-[1-(4-chloro-2-thienyl)ethyl]-1-hydroxy-3-oxo-2,3-dihydro-1H-isoindol-1-yl}-1H-benzimidazol-2-yl)carbamate]: the concentration for half-maximal inhibition (IC50) in test [1] and in test [2] was below 100 nM each time.

As to `COC(=O)Nc1nc2cc(C3(O)c4ccccc4C(=O)N3c3cccc(C(=O)c4ccccc4)c3)ccc2[nH]1` (stereo not drawn) [Entry 234, methyl (5-{1-hydroxy-3-oxo-2-[3-(phenylcarbonyl)phenyl]-2,3-dihydro-1H-isoindol-1-yl}-1H-benzimidazol-2-yl)carbamate], the half-maximal inhibitory concentration (IC50) in test [1] was in the range of 100 to 1000 nM; in test [2], 1000 to 10000 nM.

In the case of `COC(=O)Nc1nc2cc(C3(O)c4ccccc4C(=O)N3c3cccc(CN(C)C)c3)ccc2[nH]1` (stereo not drawn) [Entry 235, methyl [5-(2-{3-[(dimethylamino)methyl]phenyl}-1-hydroxy-3-oxo-2,3-dihydro-1H-isoindol-1-yl)-1H-benzimidazol-2-yl]carbamate], the 50% inhibitory concentration (IC50) in test [1] and in test [2] was 100 to 1000 nM in each case.

For the molecule `COC(=O)Nc1nc2cc(C3(O)c4ccccc4C(=O)N3c3cccc(S(N)(=O)=O)c3)ccc2[nH]1` (stereo not drawn) [Entry 236, methyl (5-{2-[3-(aminosulfonyl)phenyl]-1-hydroxy-3-oxo-2,3-dihydro-1H-isoindol-1-yl}-1H-benzimidazol-2-yl)carbamate], the concentration for half-maximal inhibition (IC50) in test [1] and in test [2] was 100 to 1000 nM each time.

`COC(=O)Nc1nc2cc(C3(O)c4ccccc4C(=O)N3c3cccc(C(C)=O)c3)ccc2[nH]1` (stereo not drawn) [Entry 237, methyl {5-[2-(3-acetylphenyl)-1-hydroxy-3-oxo-2,3-dihydro-1H-isoindol-1-yl]-1H-benzimidazol-2-yl}carbamate]: the concentration for half-maximal inhibition (IC50) in test [1] and in test [2] was below 100 nM throughout.

`CCc1cc(N2C(=O)c3ccccc3C2(O)c2ccc3[nH]c(NC(=O)OC)nc3c2)ccc1F` (stereo not drawn) [Entry 238, methyl {5-[2-(3-ethyl-4-fluorophenyl)-1-hydroxy-3-oxo-2,3-dihydro-1H-isoindol-1-yl]-1H-benzimidazol-2-yl}carbamate]: the IC50 in test [1] and in test [2] was below 100 nM throughout.

Take `COC(=O)Nc1nc2cc(C3(O)c4ccccc4C(=O)N3c3cc(F)cc(Cl)c3)ccc2[nH]1` (stereo not drawn) [Entry 239, methyl {5-[2-(3-chloro-5-fluorophenyl)-1-hydroxy-3-oxo-2,3-dihydro-1H-isoindol-1-yl]-1H-benzimidazol-2-yl}carbamate]: the IC50 in test [1] and in test [2] was below 100 nM in each case.

In the case of `CC(C)C(=O)Nc1nc2ccc(C3(O)c4ccccc4C(=O)N3Cc3ccccc3)cc2[nH]1` (stereo not drawn) [Entry 240, N-{6-[1-hydroxy-3-oxo-2-(phenylmethyl)-2,3-dihydro-1H-isoindol-1-yl]-1H-benzimidazol-2-yl}-2-methylpropanamide], the IC50 in test [1] and in test [2] was 100 to 1000 nM throughout.

On to `COC(=O)Nc1nc2cc(C3(O)c4ccccc4C(=O)N3C(C)c3sccc3Cl)ccc2[nH]1` (stereo not drawn) [Entry 241, methyl (5-{2-[1-(3-chloro-2-thienyl)ethyl]-1-hydroxy-3-oxo-2,3-dihydro-1H-isoindol-1-yl}-1H-benzimidazol-2-yl)carbamate], for which the half-inhibitory concentration (IC50) in test [1] and in test [2] was 1000 to 10000 nM in each case.

As to `COC(=O)Nc1nc2cc(C3(O)c4ccccc4C(=O)N3c3cccnc3)ccc2[nH]1` (stereo not drawn) [Entry 242, methyl [5-(1-hydroxy-3-oxo-2-pyridin-3-yl-2,3-dihydro-1H-isoindol-1-yl)-1H-benzimidazol-2-yl]carbamate], the 50% inhibitory concentration (IC50) was below 100 nM in test [1] and 100 to 1000 nM in test [2].

Turning to `COC(=O)Nc1nc2cc(C3(O)c4ccccc4C(=O)N3c3cccc(Nc4ccccc4)c3)ccc2[nH]1` (stereo not drawn) [Entry 243, methyl (5-{1-hydroxy-3-oxo-2-[3-(phenylamino)phenyl]-2,3-dihydro-1H-isoindol-1-yl}-1H-benzimidazol-2-yl)carbamate], the IC50 in test [1] and in test [2] was 100 to 1000 nM throughout.

With `COC(=O)Nc1nc2cc(C3(O)c4ccccc4C(=O)N3c3cc(Br)c(F)cc3F)ccc2[nH]1` (stereo not drawn) [Entry 244, methyl {5-[2-(5-bromo-2,4-difluorophenyl)-1-hydroxy-3-oxo-2,3-dihydro-1H-isoindol-1-yl]-1H-benzimidazol-2-yl}carbamate], the IC50 in test [1] and in test [2] was below 100 nM throughout.

Turning to `COC(=O)Nc1nc2cc(C3(O)c4ccccc4C(=O)N3c3cc(Cl)c(F)cc3F)ccc2[nH]1` (stereo not drawn) [Entry 245, methyl {5-[2-(5-chloro-2,4-difluorophenyl)-1-hydroxy-3-oxo-2,3-dihydro-1H-isoindol-1-yl]-1H-benzimidazol-2-yl}carbamate], the IC50 in test [1] and in test [2] was below 100 nM each time.

As to `COC(=O)Nc1nc2cc(C3(O)c4ccccc4C(=O)N3c3cc(Cl)c(F)c(Cl)c3)ccc2[nH]1` (stereo not drawn) [Entry 246, methyl {5-[2-(3,5-dichloro-4-fluorophenyl)-1-hydroxy-3-oxo-2,3-dihydro-1H-isoindol-1-yl]-1H-benzimidazol-2-yl}carbamate], the IC50 lay in the range of 100 to 1000 nM in test [1] and 1000 to 10000 nM in test [2].

`COCC(C)(C)COC(=O)Nc1nc2cc(C3(O)c4ccccc4C(=O)N3Cc3ccccc3)ccc2[nH]1` (stereo not drawn) [Entry 247, 2,2-dimethyl-3-(methyloxy)propyl {5-[1-hydroxy-3-oxo-2-(phenylmethyl)-2,3-dihydro-1H-isoindol-1-yl]-1H-benzimidazol-2-yl}carbamate]: the IC50 in test [1] and in test [2] was 100 to 1000 nM throughout.

As for `CC(C)(CO)COC(=O)Nc1nc2cc(C3(O)c4ccccc4C(=O)N3Cc3ccccc3)ccc2[nH]1` (stereo not drawn) [Entry 248, 3-hydroxy-2,2-dimethylpropyl {5-[1-hydroxy-3-oxo-2-(phenylmethyl)-2,3-dihydro-1H-isoindol-1-yl]-1H-benzimidazol-2-yl}carbamate], the IC50 in test [1] and in test [2] was 100 to 1000 nM in each case.

`COC(=O)Nc1nc2cc(C3(O)c4ccccc4C(=O)N3C(C)c3ccc(Br)s3)ccc2[nH]1` (stereo not drawn) [Entry 249, methyl (5-{2-[1-(5-bromo-2-thienyl)ethyl]-1-hydroxy-3-oxo-2,3-dihydro-1H-isoindol-1-yl}-1H-benzimidazol-2-yl)carbamate]: the concentration for half-maximal inhibition (IC50) in test [1] and in test [2] was below 100 nM in each case.
